The values below are quoted from earlier work in patent US20120121653A1, “Novel mometasone compositions and methods of making and using the same” (Elan Pharma International Limited, priority 2005, published 2012).

Assay in data set [1]: not given
The source holds these as a separate data set.

Read-outs that look alike come from different tables or passages of the source.

With `C[C@@H]1C[C@H]2[C@@H]3CCC4=CC(=O)C=C[C@]4(C)[C@@]3(Cl)[C@@H](O)C[C@]2(C)[C@@]1(OC(=O)c1ccco1)C(=O)CCl` [Mometasone furoate monohydrate, 9,21-Dichloro-11, β,17-di-hydroxy-16^α-methylpregna-1,4-diene-3 ,20-done 17-(2 furoate)], the solubility result is recorded as “soluble” (in acetone); “soluble” (in chloroform); “slightly soluble” (in ethanol); “slightly soluble” (in isopropanol); “slightly soluble” (in methanol); “freely soluble” (in tetrahydrofuran). For the same compound, for the setting “in water”, the solubility result is recorded as “practically insoluble”. Also, in data set [1], the “partition coefficient between octanol and water” value is listed as “greater than 5000”.
